From the NIST ThermoML archive (doi:10.1021/je050048y)
Numbers after ± are expanded uncertainties.

Assay: mn = molality of the nth substance listed, in mol/kg
Settings: 298.15 K, 101 kPa, Liquid

SMILES | viscosity (m1 = 0.4991) [mPa·s] | viscosity (m1 = 1.999) [mPa·s] | viscosity (m1 = 3) [mPa·s] | viscosity (m1 = 0.1003) [mPa·s] | viscosity (m1 = 0.4995) [mPa·s] | viscosity (m1 = 0.7497) [mPa·s] | viscosity (m1 = 1) [mPa·s]
NCC(=O)O [2-aminoacetic acid] + O | 0.956 ± 0.036 | 1.189 ± 0.043 | 1.374 ± 0.049 |  |  |  | 
C[C@H](N)C(=O)O [(S)-2-aminopropanoic acid] + O |  |  |  | 0.918 ± 0.034 | 1.017 ± 0.038 | 1.079 ± 0.04 | 1.152 ± 0.042
